Among the data in patent US10717720B2, “Modified compound of andrographolide” (Heilongjiang Zhenbaodao Pharmaceutical Co., Ltd., priority 2015, dated 2020) are inhibition values, retold here.

The term inhibition denotes the percentage by which the read-out fell short of the control.

One experiment concerns LPS-induced IL-6 release level from THP-1 cells. Description: Test of IL-6 release from THP-1 cells (LPS-induced, IL-6 in supernatant detected by CBA). The experiment is classed as cell-based. The conditions noted are these: Homo sapiens, THP-1, 24 h, read-out: Inhibition rate @ 10 uM. The essentials: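 THP-1 cells were treated with compound at final 30, 10, 3 and 1 uM, with dexamethasone 100 nM as reference, then stimulated with LPS. The LPS working solution was 800 ng/ml. After 24 h at 37 °C, IL-6 in the supernatant was measured by CBA.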
`C=C1CCC2[C@]3(C)CO[C@@H](C4CCCC4)O[C@@H]3CC[C@@]2(C)[C@@H]1CCn1cc(C(=O)O)ccc1=O` (stereo partly drawn) [Compound 457, 1-(2-((3R,4aR,6aS,7R,10bR)-3-cyclopentyl-6a,10b-dimethyl-8-dihydromethylene-1H-naphtho[2,1-d][1,3]dioxin-7-yl)ethyl)-6-oxo-1,6-dihydropyridine-3-carboxylic acid]: the inhibition at 10 µM was greater than 60%.

Still in this experiment, the particulars now being: Homo sapiens; inflammatory factor IL-6 detected by CBA; compound 10 uM; LPS-stimulated THP-1 cells, supernatant after 24 hours; read-out: Inhibition rate @ 10 uM.
Take `C=C1CCC2[C@]3(C)CO[C@@H](C4CCCC4)O[C@@H]3CC[C@@]2(C)[C@@H]1CCn1cc(C(=O)O)cn1` (stereo partly drawn) [Compound 458, 1-(2-((3R,4aR,6aS,7R,10bR)-3-cyclopentyl-6a,10b-dimethyl-8-dihydromethylene-1H-naphtho[2,1-d][1,3]dioxin-7-yl)ethyl)-1H-pyrazole-4-carboxylic acid]: the inhibition at 10 µM is 30 to 60%.
Same read-out and setting: with `C=C1CCC2[C@]3(C)CO[C@@H](C4CCCC4)O[C@@H]3CC[C@@]2(C)[C@@H]1CCOC1CCN(C(C)(C)C(=O)O)CC1` (stereo partly drawn) [Compound 463] the figure was greater than 60%; with `C=C1CCC2[C@]3(C)CO[C@@H](C4CCCC4)O[C@@H]3CC[C@@]2(C)[C@@H]1CCOC1CCN(CCO)CC1` (stereo partly drawn) [Compound 482, 2-(4-(2-((3R,4aR,6aS,7R,10bR)-3-cyclopentyl-6a,10b-dimethyl-8-dihydromethylenedecahydro-1H-naphtho[2,1-d][1,3]dioxin-7-yl)ethoxy)piperidine-1-yl)ethanol], greater than 60%; with `C=C1CCC2[C@]3(C)CO[C@@H](C4CCCC4)O[C@@H]3CC[C@@]2(C)[C@@H]1CCOC1CCN(CC(F)(F)F)CC1` (stereo partly drawn) [Compound 483, 4-(2-((3R,4aR,6aS,7R,10bR)-3-cyclopentyl-6a,10b-dimethyl-8-dihydromethylenedecahydro-1H-naphtho[2,1-d][1,3]dioxin-7-yl)ethoxy)-1-(2,2,2,-trifluoroethyl)piperidine], 30 to 60%.
On the same count and under the same terms, with `C=C1CCC2[C@]3(C)CO[C@@H](C4CCCC4)O[C@@H]3CC[C@@]2(C)[C@@H]1CCOC1CCN(S(=O)(=O)C2CC2)CC1` (stereo partly drawn) [Compound 484, 4-(2-((3R,4aR,6aS,7R,10bR)-3-cyclopentyl-6a,10b-dimethyl-8-dihydromethylene-decahydro-1H-naphtho[2,1-d][1,3]dioxin-7-yl)ethoxyl)-1-(cyclopropylsulfonyl)piperidine] the figure was greater than 60%.
